Reference: patent publication US9034882B2, “Inhibitors of human immunodeficiency virus replication” (priority 2012, dated 2015)
Read-outs that look alike come from different tables or passages of the source.

Test system: recombinant NL-Rluc virus
Assay: Inhibition of HIV replication (NL-RLuc luciferase reporter virus in MT-2 cells)
Assay type: cell-based
[1] = Human immunodeficiency virus 1, MT2, 120 h, read-out: Activity
[2] = Human immunodeficiency virus 1, MT2, 120 h, read-out: EC50 μM

Compound | EC50 [1] [µM] | EC50 [2] [µM] | EC50 (read-out: Activity, MT-2 cells infected with NL-RLuc virus, 5 days of incubation, luciferase readout, serum condition not given) [µM]
Cc1nc2cc(-c3cccc(-c4ccc5cnn(C)c5c4)c3)nn2c(N2CCC(C)(C)CC2)c1[C@H](OC(C)(C)C)C(=O)O [Example 57, (S)-2-(tert-Butoxy)-2-(7-(4,4-dimethylpiperidin-1-yl)-5-methyl-2-(3-(1-methyl-1H-indazol-6-yl)phenyl)pyrazolo[1,5-a]pyrimidin-6-yl)acetic acid] | < 0.1 | – | –
Cc1nc2cc(-c3ccccc3)nn2c(N2CCC3(CCCC3)C2)c1[C@H](OC(C)(C)C)C(=O)O [Example 26, (S)-2-(tert-butoxy)-2-(5-methyl-2-phenyl-7-(2-azaspiro[4.4]nonan-2-yl)pyrazolo[1,5-a]pyrimidin-6-yl)acetic acid] | 0.1 to 1 | 0.3 | –
Cc1nc2cc(-c3ccccc3)nn2c(N2CCC(C(F)(F)F)CC2)c1C(OC(C)(C)C)C(=O)O (stereo not drawn) [Example 23] | > 1 | – | –
Cc1nc2cc(-c3cccc(-c4ccccc4)c3)nn2c(N2CCC(C)(C)CC2)c1C(OC(C)(C)C)C(=O)O (stereo not drawn) [Example 35, 2-(2-([1,1′-Biphenyl]-3-yl)-7-(4,4-dimethylpiperidin-1-yl)-5-methylpyrazolo[1,5-a]pyrimidin-6-yl)-2-(tert-butoxy)acetic acid] | 0.1 to 1 | 0.13 | –
Cc1nc2cc(-c3cccc(-c4cccc(F)c4)c3)nn2c(N2CCC(C)(C)CC2)c1[C@H](OC(C)(C)C)C(=O)O [Example 55, (S)-2-(tert-Butoxy)-2-(7-(4,4-dimethylpiperidin-1-yl)-2-(3′-fluoro-[1,1′-biphenyl]-3-yl)-5-methylpyrazolo[1,5-a]pyrimidin-6-yl)acetic acid] | 0.1 to 1 | – | –
Cc1nc2cc(-c3ccccc3)nn2c(N2CCCNCC2)c1C(OC(C)(C)C)C(=O)O (stereo not drawn) [Example 4, 2(7-(1,4-diazepan-1-yl)-5-methyl-2-phenylpyrazolo[1,5a]pyrimidin-6-yl)-2-(tert-butoxy)-acetic acid] | > 1 | – | –
Cc1nc2cc(-c3ccccc3)nn2c(N2CCCCC2C)c1C(OC(C)(C)C)C(=O)O (stereo not drawn) [Example 20] | – | – | 0.1 to 1
Cc1nc2cc(-c3cccc(-c4ccccc4)n3)nn2c(N2CCC(C)(C)CC2)c1[C@H](OC(C)(C)C)C(=O)O [Example 67, (S)-2-(tert-Butoxy)-2-(7-(4,4-dimethylpiperidin-1-yl)-5-methyl-2-(6-phenylpyridin-2-yl)pyrazolo[1,5-a]pyrimidin-6-yl)acetic acid] | 0.1 to 1 | – | –
Cc1nc2nc(-c3ccccc3)nn2c(N2CCC(C)(C)CC2)c1C(OC(C)(C)C)C(=O)O (stereo not drawn) [Example 37, 2-tert-Butoxy-2-(7-(4,4-dimethylpiperidin-1-yl)-5-methyl-2-phenyl-[1,2,4]triazolo[1,5-a]pyrimidin-6-yl)acetic acid] | 0.1 to 1 | 0.24 | –
Cc1nc2cc(-c3cccc(-c4ccccc4)c3)nn2c(N2CCS(=O)(=O)CC2)c1[C@H](OC(C)(C)C)C(=O)O [Example 46, (S)-2-(2-([1,1′-Biphenyl]-3-yl)-7-(1,1-dioxidothiomorpholino)-5-methylpyrazolo[1,5-a]pyrimidin-6-yl)-2-(tert-butoxy)acetic acid] | 0.1 to 1 | – | –
Cc1nc2cc(-c3cccc(-c4ccccc4)c3)nn2c(N2CCOCC2)c1[C@H](OC(C)(C)C)C(=O)O [Example 44, (S)-2-(2-([1,1′-Biphenyl]-3-yl)-5-methyl-7-morpholinopyrazolo[1,5-a]pyrimidin-6-yl)-2-(tert-butoxy)acetic acid] | 0.1 to 1 | – | –
Cc1ccccc1-c1cccc(-c2cc3nc(C)c([C@H](OC(C)(C)C)C(=O)O)c(N4CCC(C)(C)CC4)n3n2)c1 [Example 58, (S)-2-(tert-Butoxy)-2-(7-(4,4-dimethylpiperidin-1-yl)-5-methyl-2-(2′-methyl-[1,1′-biphenyl]-3-yl)pyrazolo[1,5-a]pyrimidin-6-yl)acetic acid] | < 0.1 | – | –
CCC1(C)CCN(c2c([C@H](OC(C)(C)C)C(=O)O)c(C)nc3cc(-c4ccccc4)nn23)CC1 [Example 29, (S)-2-(tert-butoxy)-2-(7-(4-ethyl-4-methylpiperidin-1-yl)-5-methyl-2-phenylpyrazolo[1,5-a]pyrimidin-6-yl)acetic acid] | 0.1 to 1 | – | –
Cc1nc2cc(-c3ccc4c(c3)CCCC4)nn2c(N2CCC(C)(C)CC2)c1[C@H](OC(C)(C)C)C(=O)O [Example 33, (S)-2-(tert-Butoxy)-2-(7-(4,4-dimethylpiperidin-1-yl)-5-methyl-2-(5,6,7,8-tetrahydronaphthalen-2-yl)pyrazolo[1,5-a]pyrimidin-6-yl)acetic acid] | 0.1 to 1 | – | –
Cc1nc2nc(-c3ccccc3)nn2c(N2CC[C@H]3CCCC[C@@H]3C2)c1C(OC(C)(C)C)C(=O)O (stereo partly drawn) [Example 40, 2-(tert-Butoxy)-2-(5-methyl-7-((4aR,8aS)-octahydroisoquinolin-2(1H)-yl)-2-phenyl-[1,2,4]triazolo[1,5-a]pyrimidin-6-yl)acetic acid] | > 1 | – | –
Cc1nc2nc(-c3cccc(-c4ccccc4)c3)nn2c(N2CCC(C)(C)CC2)c1[C@H](OC(C)(C)C)C(=O)O [Example 42, (S)-2-(2-([1,1′-Biphenyl]-3-yl)-7-(4,4-dimethylpiperidin-1-yl)-5-methyl-[1,2,4]triazolo[1,5-a]pyrimidin-6-yl)-2-(tert-butoxy)acetic acid] | < 0.1 | 0.05 | –
Cc1nc2cc(-c3ccccc3)nn2c(N2CCN(C)CC2)c1C(OC(C)(C)C)C(=O)O (stereo not drawn) [Example 7, 2-(tert-butoxy)-2-(5-methyl-7(4-methylpiperazin-1-yl)-2-phenylpyrazolo[1,5a]pyrimidin-6-yl)acetic acid] | > 1 | 5.2 | –
Cc1nc2nc(-c3ccccc3)nn2c(N2CCC(C)CC2)c1C(OC(C)(C)C)C(=O)O (stereo not drawn) [Example 38, 2-tert-Butoxy-2-(5-methyl-7-(4-methylpiperidin-1-yl)-2-phenyl-[1,2,4]triazolo[1,5-a]pyrimidin-6-yl)acetic acid] | > 1 | – | –
Cc1nc2cc(-c3cccc(-c4ccc(F)cc4)c3)nn2c(N2CCC3(CC2)CC3)c1[C@H](OC(C)(C)C)C(=O)O [Example 54, (S)-2-(tert-Butoxy)-2-(2-(4′-fluoro-[1,1′-biphenyl]-3-yl)-5-methyl-7-(6-azaspiro[2.5]octan-6-yl)pyrazolo[1,5-a]pyrimidin-6-yl)acetic acid] | 0.1 to 1 | – | –
Cc1nc2cc(-c3ccccc3)nn2c(N2CC[C@@H]3CCCC[C@@H]3C2)c1C(OC(C)(C)C)C(=O)O (stereo partly drawn) [Example 14] | 0.1 to 1 | – | –
Cc1nc2cc(-c3cccc(-c4ccc(F)cc4)c3)nn2c(N2CCC(C)(C)CC2)c1[C@H](OC(C)(C)C)C(=O)O [Example 56, (S)-2-(tert-Butoxy)-2-(7-(4,4-dimethylpiperidin-1-yl)-2-(4′-fluoro-[1,1′-biphenyl]-3-yl)-5-methylpyrazolo[1,5-a]pyrimidin-6-yl)acetic acid] | 0.1 to 1 | – | –
Cc1nc2cc(-c3ccccc3)nn2c(N2Cc3ccccc3C2)c1C(OC(C)(C)C)C(=O)O (stereo not drawn) [Example 5, 2-(tert-butoxy)-2-(7-(isoindolin-2-yl)-5-methyl-2-phenylpyrazolo[1,5a]pyrimidin-6-yl)acetic acid] | > 1 | – | –
Cc1nc2cc(-c3ccccc3)nn2c(N2C(C)COCC2C)c1C(OC(C)(C)C)C(=O)O (stereo not drawn) [Example 9] | > 1 | – | –
Cc1nc2cc(-c3cccc(OCc4ccccc4)c3)nn2c(N2CCC(C)(C)CC2)c1C(OC(C)(C)C)C(=O)O (stereo not drawn) [Example 32, 2-(2-(3-(benzyloxy)phenyl)-7-(4,4-dimethylpiperidin-1-yl)-5-methylpyrazolo[1,5-a]pyrimidin-6-yl)2-(tert-butoxy)acetic acid] | < 0.1 | 0.06 | –
